Experimental data published in article PMC5606850, “Acidic C-terminal domains autoregulate the RNA chaperone Hfq” (eLife, 2017).
“Also recorded” adds a separate entry of the source.

Legend:
1000 bp DNA / pUC19 DNA = assay: Hfq·DNA aggregation: pelleting and protease assays; format: biochemical; conditions: 3.5 µM Hfq hexamer, 15 nM 1000 bp DNA (pelleting) or 6 nM pUC19 (protease assay), 25 °C
Description: Figure 5. CTD and RNAs inhibit DNA binding to Hfq by obstructing the basic rim patch. (A, B) Agarose gel electrophoretic mobility shift assays of 0–3.3 μM hexamer Hfq102, Hfq102-R16A, Hfq65 or Hfq65-R16A binding to 6 nM linear pUC19 DNA ([…]) at 25°C, stained with SYBR Gold. Hfq65 forms large aggregates that fail to enter the gel (Figure 5—figure supplement 1). (C, D) Line densitometry of DNA migration in (A, B). Free pUC19 (no Hfq) is shown in light grey. Samples with increasing Hfq concentration are shown in darker shades of grey. (E, F) RNA competition. Complexes of 0.5 μM Hfq102 hexamer and 6 nM linear pUC19 (black) were challenged by 0–2 μM RNA or DNA competitor (darker shades of red). pUC19 control in the absence of Hfq is shown in light grey. Icons indicate the binding surface for each competitor. See Figure 5—figure supplement 2 for gel images. Figure 5—figure supplement 1. Hfq CTD prevents aggregation with DNA. (A) Protease assay. 3.5 µM Hfq hexamer incubated with 6 nM linear (L) plus relaxed circular (N) pUC19 DNA at 25°C, for 30 min, in 50 mM Tris-HCl pH 7.5 and 10 mM CaCl2. The samples were divided in two. […] Digestion of Hfq65 and Hfq65-R16A with Proteinase K liberates DNA from Hfq•DNA aggregates, allowing it to be detected (lanes 9 and 10). […] The small proportion of Hfq65·DNA complexes remaining in the supernatant were only detected in the gel after treatment with salt. […]

linear pUC19 DNA = assay: Hfq binding to linear pUC19 DNA, agarose gel mobility shift; conditions: 0–3.3 μM Hfq hexamer, 6 nM linear pUC19, 25 °C, 1.5% agarose
Description: Figure 5. CTD and RNAs inhibit DNA binding to Hfq by obstructing the basic rim patch. (A, B) Agarose gel electrophoretic mobility shift assays of 0–3.3 μM hexamer Hfq102, Hfq102-R16A, Hfq65 or Hfq65-R16A binding to 6 nM linear pUC19 DNA (2635 nts) at 25°C, stained with SYBR Gold. Hfq65 forms large aggregates that fail to enter the gel (Figure 5—figure supplement 1). (C, D) Line densitometry of DNA migration in (A, B). Free pUC19 (no Hfq) is shown in light grey. Samples with increasing Hfq concentration are shown in darker shades of grey. (E, F) RNA competition. Complexes of 0.5 μM Hfq102 hexamer and 6 nM linear pUC19 (black) were challenged by 0–2 μM RNA or DNA competitor (darker shades of red). pUC19 control in the absence of Hfq is shown in light grey. Icons indicate the binding surface for each competitor. See Figure 5—figure supplement 2 for gel images. Figure 5—figure supplement 1. Hfq CTD prevents aggregation with DNA. (A) Protease assay. 3.5 µM Hfq hexamer incubated with 6 nM linear (L) plus relaxed circular (N) pUC19 DNA at 25°C, for 30 min, in 50 mM Tris-HCl pH 7.5 and 10 mM CaCl2. The samples were divided in two. One set was diluted with a small amount of buffer and incubated at 25°C for an additional 2 hr. The second set was brought to 0.5% SDS, and 0.4 U Proteinase K (NEB) was added, followed by incubation at 50°C for an additional 2 hr. Loading dye was added to all samples just before they were loaded onto a native gel. […] Digestion of Hfq65 and Hfq65-R16A with Proteinase K liberates DNA from Hfq•DNA aggregates, allowing it to be detected (lanes 9 and 10). (B) Pelleting assay. 3.5 µM Hfq hexamer was incubated with 15 nM 1000 bp DNA (Thermo Scientific) at 25°C for 30 min in 50 mM Tris-HCl pH 7.5. Hfq·DNA aggregates were pelleted by centrifugation at 20,000 × g, 4°C, for 30 min. Supernatants were removed and split in two. The pellet and half the supernatant were brought to 1 M NaCl, and the Hfq·DNA aggregates were further disrupted by phenol-chloroform extraction, before all of the samples were loaded on an agarose gel. […] The small proportion of Hfq65·DNA complexes remaining in the supernatant were only detected in the gel after treatment with salt. […] Competition of Hfq-DNA interactions by small RNAs. EMSAs of 0.5 μM Hfq102 hexamer binding to 6 nM linearized pUC19 plasmid, that were competed with 0.1–2 μM RNAs or DNA at 30°C. Gels were run in a cold room. […]
Samples (10 µL) containing linear pUC19 (0.145 nmol bp), 0–3.333 µM Hfq hexamer, in 40 mM Tris-HCl pH 7.5, 0.14 mM EDTA, 35 mM NH4Cl, 3.7% (v/v) glycerol, 0.05% (w/v) bromophenol blue were incubated at 25°C for 30 min. […] The fluorescence intensity was measured on a line from the bottom edge of the well through the middle of the lane to visualize the migration of pUC19. […]

Substance: Hfq65-R16A
- Hfq·DNA aggregation (1000 bp DNA / pUC19 DNA): more evenly distributed between pellet and supernatant fractions; also recorded: form insoluble aggregates with DNA which do not enter the gel
- binding to linear pUC19 DNA (gel mobility) (linear pUC19 DNA): rescued the formation of insoluble aggregates; also recorded: complexes migrated more slowly than those formed by similar concentrations of Hfq102
- binding to linear pUC19 DNA (gel mobility) (linear pUC19 DNA; listed as R16A): lowered the maximum gel retardation and increased the intensity of the ‘smear’

Substance: Hfq65: truncated E. coli Hfq variant lacking the CTD
- Hfq·DNA aggregation (1000 bp DNA / pUC19 DNA): Nearly all of the Hfq65·DNA complexes were found in the pellet fraction; also recorded: form insoluble aggregates with DNA which do not enter the gel
- binding to linear pUC19 DNA (gel mobility) (linear pUC19 DNA): At higher protein concentrations, the DNA formed aggregates that were too large to enter the gel

Substance: Hfq102: full-length E. coli Hfq
- binding to linear pUC19 DNA (gel mobility) (linear pUC19 DNA): The mobility of the DNA-Hfq complexes decreased with added Hfq102
